Like-named read-outs stand apart in the source and are kept apart here.
Columns and labels:
[1] = Peptide stability in complete medium with dispersed islet cells (cAMP bioactivity assay); format: in vitro ADME, mouse
Method: AD-293 cells were added to a 12-well plate and maintained in 2 ml complete DMEM. 1 μg of specified plasmid DNA was added to each well alongside Lipofectamine 2000 (Thermo Fisher, UK). cAMP production was quantified 24 hours following transfection using homogenous time resolved fluorescence (HTRF), specifically the cAMP-Gs Dynamic 2 kit (Cisbio, France). Peptides and cells were diluted in DMEM + 1% P/S + 0.1% BSA. For peptide stability testing, cells, fresh peptide and peptide incubated with dispersed islet cells were diluted in RPMI-1640 (Thermo Fisher, UK) + 10% FBS + 1% P/S. 10 μl of peptide and 10 μl of cell suspension were added in duplicate to an opaque 96-well plate (Grenier Bio-One, Austria) and incubated at 37°C for 30 minutes. 10 μl of cAMP-d2 and anti-cAMP cryptate, both diluted in lysis buffer, were added in quick succession as per the manufacturer’s protocol. The plates were then incubated at room temperature for 45 minutes and read using the SpectraMax i3x (Molecular Devices, US).
Three-parameter curve fitting was applied.

HFD-induced obese mice = assay: Acute fast-refeed food intake study; format: in vivo, mouse; conditions: 200 nmol/kg; vehicle and GIP108 (30 nmol/kg) pre-treated HFD-induced obese mice; n = 37–40
Method: (§1) In all in vivo studies, mice were randomised by body weight into groups. Mice received a 50 μL subcutaneous injection of saline (0.9% sodium chloride) or peptide at a specified dose, diluted in saline. Peptide dosing was in nmol per kg of total body weight. For the assessment of the chronic effects of GIP108, mice were injected daily for 15 days. Body composition was measured by EchoMRI on day −1 and day 15. An intraperitoneal glucose tolerance test (IPGTT) (2 g/kg) was conducted on day 14, following 6 h of fasting and 2 h after peptide injection. Non-fasting plasma leptin (ab199082, Abcam, UK), adiponectin (ab226900, Abcam, UK) and amino acids (ab65347, Abcam, UK) were measured on day 16. For the assessments of in vivo GIPR desensitisation, mice were injected at 17:00 with vehicle or GIP108 (30 nmol/kg) prior to an acute food intake study/IPGTT/insulin bleeds conducted the following day. Full details of the in vivo studies are provided in the supplementary methods.
Food intake was measured at t=30, t=60, t=120 and t=240 mins.

dispersed islet cells = assay: cADDis cAMP concentration-response in dispersed islets; format: cell-based, mouse; conditions: three-parameter fit, n=5, read-out: calculated EC50, cAMP in dispersed islets
Method: (§2) Primary cultures of mouse hypothalamic neurons and dispersed pancreatic islets were transduced with the Green Up cADDis biosensor (Montana Molecular, US). Pancreatic islets from CAMPER^Pdx−1-CreERT2 and CAMPER^Som-Cre mice were not transduced. Cells were pre-treated with peptides as specified, dissolved in culture media. Following 4 h or overnight incubation and a 1-hour washout period, cells were imaged using an epifluorescence microscope at baseline (t = 3 min), following peptide addition (t = 10 min, unless specified otherwise), and following 3-isobutyl-1-methylxanthine (IBMX) (500 μM) and forskolin (FSK) (50 μM) addition (t = 3 min) to maximally stimulate the sensor. In pre-treatment experiments, islet cell fluorescence was normalised to the IBMX/FSK response which was set as 100%. In non-pre-treatment experiments, islet and neuronal cell fluorescence was normalised to both the baseline and IBMX/FSK response. The area-under-the-curve (AUC) for each cell was quantified. Full details of isolation, transduction, plating, imaging and image analysis is provided in the supplementary methods.
Dispersed islets: A cell suspension of dispersed islets in RPMI-1640 + 10% FBS + 1% P/S (islet complete media) was seeded onto square 96 well µ-plates (Ibidi, UK), coated with 0.01% poly-D-lysine hydrobromide (Sigma-Aldrich, UK) and 25 µg/ml mouse laminin (Thermo Fisher, UK). For cADDis experiments, cells were transduced with the Green Up cADDis biosensor (15 μL of cADDis, 1.5 μL of sodium butyrate per well: Montana Molecular, US). Cells were incubated overnight (37°C, 95%:5% O2:CO2 ratio).
Cells were imaged in Krebs buffer with 6 mM glucose and 0.1% BSA (unless 10% FBS was specified) at 37°C using an automated epifluorescence microscope (modified Nikon Ti-2E with LED illumination). Multiple fields of view (FOV) were imaged in parallel (for islets, multiple wells of a 96 well plate were imaged in parallel), allowing hundreds to thousands of cells to be imaged every minute throughout the time course. For all acquisitions, the first three minutes were baseline recording pre-peptide addition and the last three minutes were a positive control following IBMX (500 μM) and forskolin (50 μM) addition to maximally stimulate the sensor.
cAMP quantification from the raw islet/neuronal images was performed using Fiji v1.54f (NIH). For each acquisition, a flat-field (BaSiC [3*]) correction was applied, and intensity thresholding enabled cell-containing regions to be identified as regions-of-interest (ROIs). The fluorescence intensity of each ROI was measured at each time point. In pre-treatment experiments, islet cell fluorescence was normalised to the maximal IBMX/FSK response which was set as 100%. For non-pre-treatment experiments, neuronal and islet cell fluorescence were normalised to both the baseline and maximal IBMX/FSK response. The AUC during peptide stimulation for each cell was quantified. Neurons with an AUC greater than 75 (representing a response 15 % of the maximum IBMX/FSK response) were deemed responder neurons.
We aimed to determine appropriate pre-treatment doses of GIPR agonists which would produce detectable cAMP responses, indicating target engagement, and were compatible with an extended incubation in complete medium, which could influence ligand availability via binding to serum proteins. We first performed concentration-response analysis in dispersed islets transduced with cADDis in the presence of 10% FBS (Figure S2A, B, D, E).
To determine a sensible re-challenge dose of GIPR agonists, a further concentration-response analysis was conducted in cADDis-transduced dispersed islets in imaging buffer (Krebs buffer + 6 mM glucose + 0.1% BSA, i.e. without FBS) (Figure S2C, F). […] Therefore, 1 μM of GIP108 and 100 nM of GIP were chosen as peri-maximal re-stimulation doses for the remaining islet cAMP assays.
GLP-1R agonist pre-treatment dose selection was performed concurrently with GIPR agonist dose selection.

[2] = tested on: lean and HFD-induced obese mice; assay: In vivo GIPR desensitisation: IPGTT and insulin bleeds; set-up: species or system mouse
Method: as §1
Mice were fasted at 08:00. For all studies, 20% glucose was administered at 14:00, with the injection volume adjusted to the body weight of the mouse such that each mouse received glucose at 2 g/kg. To assess effects of GIP108 on day 14 of the chronic study, mice were dosed with saline or GIP108 at a specified dose at 12:00. […] Blood glucose measurements were taken via tail vein venesection at baseline, t=15, t=30, t=60, t=90 and t=120 mins. Glucose AUC is calculated using y=0. Glucose readings were measured in mmol/L using the same GlucoRx glucometer.
Mice were fasted at 08:00. At 14:00, mice received an intraperitoneal injection with 20% glucose, with the injection volume adjusted to the body weight of the mouse such that each mouse received glucose at 2 g/kg. […] Blood samples were taken via tail vein venesection at baseline and t=15 minutes following injection.
Leptin, adiponectin and amino acids were quantified following chronic GIP108 administration. Plasma amino acids were measured using the Abcam L-amino acid assay kit (ab65347, Abcam, UK). Plasma adiponectin was measured using the Abcam mouse adiponectin ELISA kit (ab226900, Abcam, UK). Plasma leptin was measured using the Abcam mouse leptin ELISA kit (ab199082, Abcam, UK). All assays were performed according to the manufacturer’s protocol and were read using the SpectraMax i3x Microplate Reader (Molecular Devices, US).

[3] = tested on: murine hypothalamic neurons; assay: cADDis cAMP imaging in primary hypothalamic neurons; format: cell-based, mouse; conditions: 100 nM and 1 μM, 5-minute stimulation, n=4
Method: as §2
Primary cultures of hypothalamic neurons were prepared from 6-week-old male and female mice as described previously [2*]. A minor difference was that the neuronal pellet was resuspended in Neurobasal-A medium containing 0.25% Glutamax, 2% B27 and 25 ng/ml NGF (all Thermo Fisher, UK) (neuronal culture media).
Hypothalamic neurons: 100 μL cell suspension of neurons in neuronal culture media was seeded on 35 mm petri dish (MatTek Corporation), pre-coated with 0.01% poly-D-lysine hydrobromide. […]
cAMP quantification from the raw islet/neuronal images was performed using Fiji v1.54f (NIH). […] The fluorescence intensity of each ROI was measured at each time point. In pre-treatment experiments, islet cell fluorescence was normalised to the maximal IBMX/FSK response which was set as 100%. For non-pre-treatment experiments, neuronal and islet cell fluorescence were normalised to both the baseline and maximal IBMX/FSK response. The AUC during peptide stimulation for each cell was quantified. […]

[4] = 1 μM in complete medium with dispersed islet cells, cAMP bioactivity in mouse GIPR AD-293 cells

concentration remaining from 0.5 nM after 24 hours [1] [nM] | concentration remaining from 5 nM after 24 hours [1] [nM] | Compound | food intake, acute fast-refeed study (HFD-induced obese mice) | EC50 (dispersed islet cells; imaging buffer (Krebs buffer + 6 mM glucose + 0.1% BSA, without FBS)) [nM] | EC50 (dispersed islet cells; in the presence of 10% FBS, stepwise addition) [nM] | stability at 4 hours [1, 4] | stability at 24 hours [1, 4] | glucose tolerance during IPGTT ([2]; hGIP 50 nmol/kg with i.p. glucose, lean and HFD-induced obese mice given s.c. vehicle 21 h prior, n = 14–16) | glucose tolerance during IPGTT ([2]; hGIP 500 nmol/kg, lean and obese mice pre-treated with GIP108 (30 nmol/kg), n=6-8) | cAMP response of hypothalamic neurons [3]
0.12 | 0.97 | CCCCCCCCCCCCCCCC(=O)N[C@@H](CCC(=O)NCCCC[C@H](NC(=O)[C@H](C)NC(=O)[C@H](C)NC(=O)[C@H](CCC(N)=O)NC(=O)CNC(=O)[C@H](CCC(=O)O)NC(=O)[C@H](CC(C)C)NC(=O)[C@H](Cc1ccc(O)cc1)NC(=O)[C@H](CO)NC(=O)[C@H](CO)NC(=O)[C@@H](NC(=O)[C@H](CC(=O)O)NC(=O)[C@H](CO)NC(=O)[C@@H](NC(=O)[C@H](Cc1ccccc1)NC(=O)[C@@H](NC(=O)CNC(=O)[C@H](CCC(=O)O)NC(=O)[C@H](C)NC(=O)[C@@H](N)Cc1cnc[nH]1)[C@@H](C)O)[C@@H](C)O)C(C)C)C(=O)N[C@@H](CCC(=O)O)C(=O)N[C@@H](Cc1ccccc1)C(=O)N[C@H](C(=O)N[C@@H](C)C(=O)N[C@@H](Cc1c[nH]c2ccccc12)C(=O)N[C@@H](CC(C)C)C(=O)N[C@H](C(=O)N[C@@H](CCCNC(=N)N)C(=O)NCC(=O)N[C@@H](CCCNC(=N)N)C(=O)NCC(=O)O)C(C)C)[C@@H](C)CC)C(=O)O [liraglutide] | – | – | – | – | – | – | – | –
– | – | human GIP(1–42) [hGIP] | modest reductions in food intake | 6.37 | 69.4 | remained stable at 4 hours | not 24 hours | significantly improved glucose tolerance | still able to improve glucose tolerance | failed to show detectable responses

From PMC11786100, “Chronic GIPR agonism results in pancreatic islet GIPR functional desensitisation” (Molecular Metabolism, 2025)
